Results as given in paper PMC3481155, “AhR activation underlies the CYP1A autoinduction by A-998679 in rats” (Frontiers in Genetics, 2012).

Key:
CYP1A2 = CYP1A2 mRNA induction in primary human hepatocytes; type: cell-based; details: 24 h, dose-dependent
Procedure: Rat hepatocytes were isolated in a perfusion procedure as described previously (Elliget and Kolaja, [1983]; Waring et al., [2001]). The beagle dog hepatocytes were isolated in the same manner, except for adjustment of flow rate and buffer volume to scale to liver size. Cells were plated at a seeding density of 1.0 × 10^6 cells per well on 6-well, collagen-type I coated plates (BD Biosciences, Bedford, MA) in hepatocyte plating medium (Celsis, Baltimore, MD). Cells were allowed to attach for 24 h in a 37°C humidified incubator with a 5% CO2 atmosphere and were dosed for 24 h (rat) or 48 h (dog) with vehicle control [0.1% DMSO (v/v)] or 10 μM A-998679 in fresh treatment media (Celsis hepatocyte incubation media) every 24 h. After the last incubation, cells were lysed in 1 ml of Qiazol (Qiagen) and stored at −80°C until RNA isolation. Cryopreserved human hepatocytes (donor designation Hu4198; Invitrogen Life Technologies, Carlsbad, CA) were thawed and plated according to the manufacturer's protocol and allowed to incubate for 24 h. […]
RNA samples were diluted with RNase-free molecular biology grade water to a concentration of 20 ng/μl total RNA. […] Results were analyzed by calculating the fold change of CYP1A1 and/or CYP1A2 mRNA levels normalized to 28S rRNA (ΔΔ Ct) in compound treated cells or tissues compared to vehicle levels. […]

Mrp2 = Mrp2 expression in rat small intestine; type: in vivo; details: treated rats; data not shown
Procedure: All animal experiments were conducted in accordance with the Guiding Principles in the Use of Animals in Toxicology (http://www.toxicology.org/ai/air/air6.asp) and were approved by Abbott's Institutional Animal Care and Use Committee (IACUC). Male Sprague-Dawley rats [Crl:CD®(SD)IGS BR], weighing ~250 g at study initiation were obtained from Charles River Laboratories, Inc. (Wilmington, MA). Rats were housed singly in ventilated, stainless steel, wire-bottom hanging cages and fed non-certified Rodent Chow (Harlan Labs, Madison, WI), and water ad libitum and acclimated for at least 5 days after arrival. […] Serum clinical chemistry parameters were quantified using an Aeroset Clinical Chemistry Analyzer (Abbott Laboratories, Abbott Park, IL) and included alanine amino transferase (ALT), aspartate amino transferase (AST), gamma glutamyltransferase (GGT), and alkaline phosphatase (ALP) activities.
Frozen liver or jejunum were immediately added to 4 ml of TRIzol reagent (Invitrogen Life Technologies) and homogenized using a Polytron 300D homogenizer (Brinkman Instruments, Westbury, NY). […] Nucleic acid concentration was determined by OD 260 nm (Smart-Spec, Bio-Rad Laboratories, Hercules, CA), and RNA integrity was evaluated using an Agilent 2100 bioanalyzer (Agilent Technologies, Foster City, CA). […]

lowest concentration inducing CYP1A2 mRNA (CYP1A2): 3 µM
Structure (SMILES): N#Cc1cccc(-c2noc(-c3cccnc3)n2)c1 [A-998679, 3-(5-pyridin-3-yl-1,2,4-oxadiazol-3-yl) benzonitrile]
expression of Mrp2 in small intestine (Mrp2): increased expression
